Results: publication PMC6156138, “Combination of a Latency-Reversing Agent With a Smac Mimetic Minimizes Secondary HIV-1 Infection in vitro” (Frontiers in Microbiology, 2018)
Read-outs that look alike come from different tables or passages of the source.

Legend:
[1] = system: TNF-α; assay: TNF-α production in culture supernatants (ELISA); type: cell-based; details: ACH-2 cells, PEP005 0–50 nM, 24 h
Protocol: The expression of TNF-α mRNA was measured as previously described ([Zhang et al., 2014]). For the detection of supernatant TNF-α levels, ACH-2 cells (2.5 × 10^5 cells/ml) were incubated with various concentrations of PEP005 (0–50 nM) for 24 h at 37°C. Culture supernatants were harvested and centrifuged to remove cellular debris. The production of TNF-α was measured by using a Human TNF alpha Platinum ELISA Kit (eBioscience, Hatfield, United Kingdom) according to the manufacturer’s instructions. The sensitivity of the assay was 2.3 pg/ml.
Supplementary file Data_Sheet_6.PDF: FIGURE S6 Elevation of supernatant TNF-α protein and mRNA levels in the presence of PEP005. (A) ACH-2 cells were exposed to PEP005, incubated for 24 h, supernatant was harvested, and TNF-α protein levels were measured using ELISA. (B) Changes in mRNA levels of TNF-α in PEP005-treated primary CD4^+ T-cells in eight HIV-1 patients (Supplementary Table S3). Cells were harvested after 24 h incubation. Click here for additional data file.

[2] = system: U1 cells; assay: FACS analysis of active caspase-3 expression; type: cell-based; details: 24 h, birinapant 50 nM, PEP005 5 nM, TNF-α 10 ng/ml
Protocol: Intracellular HIV-1 p24 levels and active form of caspase-3 expression were determined as previously described ([Hattori et al., 2009]; [Duro et al., 2010]; [Matsuda et al., 2015]). In brief, ACH-2 cells or U1 cells (2.5 × 10^5 cells/mL) were fixed with 1% paraformaldehyde/phosphate buffered saline (PBS) for 20 min and were permeabilized with Flow Cytometry Perm Buffer (TONBO biosciences, San Diego, CA, United States). After incubation on ice for 5 min, the cells were stained with anti-HIV-1 p24 (24-4)-FITC mAb (Santa Cruz Biotechnology, Dallas, TX, United States) and/or with Alexa Fluor 647-conjugated anti-active caspase-3 mAb (C92-605) (BD Pharmingen, San Diego, CA, United States) for 30 min on ice. Cells were then analyzed on a BD FACSVerse flow cytometer (BD Biosciences, Franklin Lakes, NJ, United States). The corrected data were analyzed with FlowJo software (Tree Star, San Carlos, CA, United States).
FIGURE 3 (A,B) ACH-2 (A) and U1 cells (B) were treated with birinapant (50 nM), PEP005 (5 nM), birinapant plus PEP005, TNF-α (10 ng/ml), and intracellular expression of caspase-3 was examined after 24 h of incubation. The percentage of active caspase-3 cells was determined by comparison with unstimulated cells. (C) ACH-2 cells after 24 h of PEP005 (0∼50 nM) treatment with or without birinapant (50 nM) were separately analyzed in p24^+ and p24^- populations for caspase-3 expression.

[3] = Cytotoxicity assay (Cytotoxicity LDH Assay Kit); type: cell-based; details: human
Protocol: To determine the cytotoxicity induced by LRAs and its related compounds, cells (5 × 10^5 cells/mL) were cultured in the presence or absence of LRA. After 24 h, cytotoxicity assays were performed using a Cytotoxicity LDH Assay Kit (Dojindo, Kumamoto, Japan) according to the manufacturer’s instructions. The number of living cells with the drug was measured and compared with those without the drug, and data are shown as percentage (%) of control.

[4] = Toxicity on PHA-stimulated PBMCs from healthy donor (WST-8 assay); type: cell-based; details: human
Protocol: Table S1. CC50 values on PHA-stimulated PBMCs from healthy donor
PBMCs (2 x 10^6 cells/ml) were treated with birinapant or PEP005 and cultured for 3days. Cell viability was
Table S2. Toxicity of PEP005 and birinapant in combination
Agent (concentration) % replication
PEP005 (1 µM) + birinapant (1 µM) 65.5 %
PBMCs (2 x 10^6 cells/ml) were treated with birinapant (10 nM - 10 µM) and/or PEP005 (10 nM - 100 µM)
and cultured for 3 days. Cell viability was measured by WST-8 assay.

[5] = system: latent HIV-1-infected U1 cells; assay: HIV reactivation from latent cells: intracellular HIV-1 RNA (qRT-PCR); type: cell-based; details: 24 h (Figure 1D)
Protocol: (§1) The reactivation of HIV-1 from latently infected cells was determined by the measurement of supernatant p24 antigen and intracellular HIV-1 RNA levels. ACH-2 cells or U1 cells (5 × 10^5 cells/mL) were placed in 96-well plates, and then the cells were incubated with different concentrations of drugs for 24 h to extract RNA and for 48 h to collect the supernatant. The increase in supernatant p24 antigen levels was measured using […] G1200 (Fujirebio, Tokyo, Japan). The total RNA was extracted using an RNeasy Mini Kit (Qiagen, Hilden, Germany), following the manufacturer’s protocols. The cDNA was synthesized using PrimeScript RT Master Mix (Takara Bio, Shiga, Japan), and quantitative real-time PCR analyses for the intracellular HIV-1 RNA were carried out with PowerUp^TM SYBR Green Master Mix (Applied Biosystems, Foster City, CA, United States). The oligonucleotide primers used were as follows: 5′-[…]-3′ (forward) and 5′-[…]-3′ (reverse) for HIV-RNA detection; 5′-[…]-3′ (forward) and 5′-[…]-3′ (reverse) for β-actin. The HIV-RNA expressions were normalized with that of β-actin, which was indicated as the relative quantity, and the increase in HIV-1 RNA levels in the presence of a drug was compared with that without a drug.
(§2) FIGURE 1 (A,B) The increase in viral production from ACH-2 cells (A) and U1 cells (B) was examined by supernatant p24 antigen levels on day 2. […]

[6] = system: latent HIV-1-infected ACH-2 cells; assay: as above; type: cell-based; details: 24 h (Figure 1C)
Protocol: as §1, §2

[7] = system: J1.1 cells; assay: Virus production in J1.1 cells (viral RNA copies in supernatant); type: cell-based, HIV-1; details: birinapant combined with TNF-α 20 ng/mL, 48 h
Protocol: Cells were treated with birinapant with ( [drawing 1] ) or without ( [drawing 2] ) TNF-α (20 ng/mL). After 48 h incubation, culture supernatant was harvested, and viral RNA was extracted. Viral copy numbers in culture supernatant were measured by real-time RT-PCR. Click here for additional data file.

[8] = A3.01 cells, read-out: CC50 ± SD against A3.01
[9] = ACH-2 cells, read-out: CC50 ± SD against ACH-2
[10] = HL-60 cells, read-out: CC50 ± SD against HL-60
[11] = J1.1 cells, read-out: CC50 ± SD against J1.1
[12] = Jurkat cells, read-out: CC50 ± SD against Jurkat
[13] = OM10.1 cells, read-out: CC50 ± SD against OM10.1
[14] = U1 cells, read-out: CC50 ± SD against U1
[15] = U937 cells, read-out: CC50 ± SD against U937

Structure (SMILES)	supernatant TNF-α level [1]	percentage of active caspase-3 cells [2] [%]	CC50 at 24 h [3, 8] [µM]	CC50 at 24 h [3, 9] [µM]	CC50 at 24 h [3, 10] [µM]	CC50 at 24 h [3, 11] [µM]	CC50 at 24 h [3, 12] [µM]	CC50 at 24 h [3, 13] [µM]	CC50 at 24 h [3, 14] [µM]	CC50 at 24 h [3, 15] [µM]	CC50 at 3 days ([4]; PHA-stimulated PBMCs from healthy donor, 3 days, WST-8 assay, read-out: CC50 (µM) ± SD) [µM]	intracellular HIV-1 mRNA levels [5]	intracellular HIV-1 mRNA levels [6]	virus production (viral copy numbers in culture supernatant) [7]	CC50 at 3 days [4] [µM]
C/C=C(/C)C(=O)O[C@H]1C(C)=C[C@]23C(=O)[C@@H](C=C(CO)[C@@H](O)[C@]12O)[C@H]1[C@@H](C[C@H]3C)C1(C)C [PEP005, ingenol-3-angelate]	elevated	10.8	47 ± 9	19 ± 0.4	> 100	44 ± 2	16 ± 3	84 ± 6	> 100	> 100	> 100	–	–	–	–
CC[C@H](NC(=O)[C@H](C)NC)C(=O)N1C[C@@H](O)C[C@H]1Cc1c(-c2[nH]c3cc(F)ccc3c2C[C@@H]2C[C@H](O)CN2C(=O)[C@H](CC)NC(=O)[C@H](C)NC)[nH]c2cc(F)ccc12 [Birinapant]	–	–	0.2 ± 0.08	> 100	> 100	48 ± 0.9	13 ± 0.1	53 ± 8	> 100	> 100	–	only had a minor effect on HIV-1 reactivation	only had a minor effect on HIV-1 reactivation	suppresses virus production	10.7 ± 0.2
